Laboratory results reported in US8314143B2, “Synthetic flavonoids and pharmaceutical compositions and therapeutic methods of treatment of HIV infection and other pathologies” (Florida A&M University, priority 2006, dated 2012).
Several values for one entry are separate records, joined by “and”; a condition that tells them apart may be missing. Identical values can stand only once.

Columns and labels:
Assay type in all cases: cell-based
H-9 cells = assay: Cytoxicity on H-9 cells (drug inhibition, cell count); conditions: for H-9 Mean (drug inhibition): Table 4 summary; for % Inhibition Mean / Cells (×10^4) Mean / % Inhibition / Cells (×10^4): Exp. Dec. 05 to Dec. 09, 2005; for % Inhibition / Cells (×10^4): single replicates
Source text: (§1) The purified and identified analogs were subjected to in vitro biological testing. […] These three congeners were further evaluated in H9 and PC3 cells. AZT was employed as a positive control in all of these experiments.

MCF-7 cells = assay: Cytoxicity on MCF-7 cells (drug inhibition, cell count); design: Drug Inhibition on MCF-7 Cells / MCF-7 Mean (drug inhibition) / Drug inhibition on MCF-7 Cells Mean: unit not given here; conditions: MCF-7 cells; for MCF-7 Mean (drug inhibition): Table 13 summary part; for Drug inhibition on MCF-7 Cells Mean: Table 14 summary part
Source text: as §1

PC-3 cells = assay: Cytoxicity on PC-3 cells (drug inhibition, cell count); conditions: for % Inhibition Mean / Cells (×10^4) Mean / % Inhibition / Cells (×10^4): Exp. Nov. 11 to Nov. 17, 2005; for % Inhibition / Cells (×10^4): single replicates
Source text: The purified and identified analogs were subjected to in vitro biological testing.

[1] = 1 μg/ml, mean, Exp. Nov. 14 to Nov. 18, 2005
[2] = 1 μg/ml, mean, Exp. Sep. 08 to Sep. 12, 2005
[3] = 1 μg/ml, mean, Exp. Sep. 12 to Sep. 16, 2005
[4] = 1 μg/ml, mean, Exp. Sep. 26 to Sep. 30, 2005
[5] = 1 μg/ml, single replicates, Exp. Nov. 14 to Nov. 18, 2005
[6] = 1 μg/ml, single replicates, Exp. Sep. 08 to Sep. 12, 2005
[7] = 1 μg/ml, single replicates, Exp. Sep. 12 to Sep. 16, 2005
[8] = 1 μg/ml, single replicates, Exp. Sep. 26 to Sep. 30, 2005
[9] = 5 μg/ml, mean, Exp. Nov. 14 to Nov. 18, 2005
[10] = 5 μg/ml, mean, Exp. Sep. 08 to Sep. 12, 2005
[11] = 5 μg/ml, mean, Exp. Sep. 12 to Sep. 16, 2005
[12] = 5 μg/ml, mean, Exp. Sep. 26 to Sep. 30, 2005
[13] = 5 μg/ml, single replicates, Exp. Nov. 14 to Nov. 18, 2005
[14] = 5 μg/ml, single replicates, Exp. Sep. 08 to Sep. 12, 2005
[15] = 5 μg/ml, single replicates, Exp. Sep. 12 to Sep. 16, 2005
[16] = 5 μg/ml, single replicates, Exp. Sep. 26 to Sep. 30, 2005
[17] = 10 μg/ml, mean, Exp. Nov. 14 to Nov. 18, 2005
[18] = 10 μg/ml, mean, Exp. Sep. 08 to Sep. 12, 2005
[19] = 10 μg/ml, mean, Exp. Sep. 12 to Sep. 16, 2005
[20] = 10 μg/ml, mean, Exp. Sep. 26 to Sep. 30, 2005
[21] = 10 μg/ml, single replicates, Exp. Nov. 14 to Nov. 18, 2005
[22] = 10 μg/ml, single replicates, Exp. Sep. 08 to Sep. 12, 2005
[23] = 10 μg/ml, single replicates, Exp. Sep. 12 to Sep. 16, 2005
[24] = 10 μg/ml, single replicates, Exp. Sep. 26 to Sep. 30, 2005

Cc1cn([C@H]2C[C@H](N=[N+]=[N-])[C@@H](CO)O2)c(=O)[nH]c1=O [AZT, reference compound]
H-9 Mean (drug inhibition) (H-9 cells; 1 μg/ml): 18.74 | % Inhibition Mean (H-9 cells; 1 μg/ml): 18.74% | Cells (×10^4) Mean (H-9 cells; 1 μg/ml): 40.83 ×10^4 | % Inhibition (H-9 cells; 1 μg/ml): 17.91% and 25.37% and 12.94% | Cells (×10^4) (H-9 cells; 1 μg/ml): 41.3 ×10^4 and 37.5 ×10^4 and 43.8 ×10^4 | H-9 Mean (drug inhibition) (H-9 cells; 5 μg/ml): 38.47 | % Inhibition Mean (H-9 cells; 5 μg/ml): 38.47% | Cells (×10^4) Mean (H-9 cells; 5 μg/ml): 30.92 ×10^4 | % Inhibition (H-9 cells; 5 μg/ml): 39.30% and 40.30% and 35.82% | Cells (×10^4) (H-9 cells; 5 μg/ml): 30.5 ×10^4 and 30.0 ×10^4 and 32.3 ×10^4 | H-9 Mean (drug inhibition) (H-9 cells; 10 μg/ml): 49.75 | % Inhibition Mean (H-9 cells; 10 μg/ml): 49.75% | Cells (×10^4) Mean (H-9 cells; 10 μg/ml): 25.25 ×10^4 | % Inhibition (H-9 cells; 10 μg/ml): 48.26% and 50.25% and 50.75% | Cells (×10^4) (H-9 cells; 10 μg/ml): 26.0 ×10^4 and 25.0 ×10^4 and 24.8 ×10^4 | Drug Inhibition on MCF-7 Cells (MCF-7 cells; 1 μg/ml, Table 8 summary): 6.92 | Drug Inhibition on MCF-7 Cells (MCF-7 cells; 1 μg/ml, Table 12 summary): 26.55 | MCF-7 Mean (drug inhibition) (MCF-7 cells; 1 μg/ml): 25.77 | Drug inhibition on MCF-7 Cells Mean (MCF-7 cells; 1 μg/ml): 21.53 | % Inhibition Mean (MCF-7 cells; [1]): 6.92% | Cells (×10^4) Mean (MCF-7 cells; [1]): 53.83 ×10^4 | % Inhibition Mean (MCF-7 cells; [2]): 25.77% | Cells (×10^4) Mean (MCF-7 cells; [2]): 52.33 ×10^4 | % Inhibition Mean (MCF-7 cells; [3]): 21.53% | Cells (x10^4) Mean (MCF-7 cells; [3]): 45.25 x10^4 | % Inhibition Mean (MCF-7 cells; [4]): 26.55% | Cells (×10^4) Mean (MCF-7 cells; [4]): 36.42 ×10^4 | % Inhibition (MCF-7 cells; [5]): 8.36% and 4.47% and 7.93% | Cells (×10^4) (MCF-7 cells; [5]): 53.0 ×10^4 and 55.3 ×10^4 and 53.3 ×10^4 | % Inhibition (MCF-7 cells; [6]): 27.66% and 23.76% and 25.89% | Cells (×10^4) (MCF-7 cells; [6]): 51.0 ×10^4 and 53.8 ×10^4 and 52.3 ×10^4 | % Inhibition (MCF-7 cells; [7]): 22.83% and 20.23% and 21.53% | Cells (x10^4) (MCF-7 cells; [7]): 44.5 x10^4 and 46.0 x10^4 and 45.3 x10^4 | % Inhibition (MCF-7 cells; [8]): 28.40% and 25.88% and 25.38% | Cells (×10^4) (MCF-7 cells; [8]): 35.5 ×10^4 and 36.8 ×10^4 and 37.0 ×10^4 | Drug Inhibition on MCF-7 Cells (MCF-7 cells; 5 μg/ml, Table 8 summary): 38.62 | Drug Inhibition on MCF-7 Cells (MCF-7 cells; 5 μg/ml, Table 12 summary): 46.86 | MCF-7 Mean (drug inhibition) (MCF-7 cells; 5 μg/ml): 39.36 | Drug inhibition on MCF-7 Cells Mean (MCF-7 cells; 5 μg/ml): 50.43 | % Inhibition Mean (MCF-7 cells; [9]): 38.62% | Cells (×10^4) Mean (MCF-7 cells; [9]): 35.50 ×10^4 | % Inhibition Mean (MCF-7 cells; [10]): 39.36% | Cells (×10^4) Mean (MCF-7 cells; [10]): 42.75 ×10^4 | % Inhibition Mean (MCF-7 cells; [11]): 50.43% | Cells (x10^4) Mean (MCF-7 cells; [11]): 28.58 x10^4 | % Inhibition Mean (MCF-7 cells; [12]): 46.86% | Cells (×10^4) Mean (MCF-7 cells; [12]): 26.35 ×10^4 | % Inhibition (MCF-7 cells; [13]): 39.91% and 40.35% and 35.59% | Cells (×10^4) (MCF-7 cells; [13]): 34.8 ×10^4 and 34.5 ×10^4 and 37.3 ×10^4 | % Inhibition (MCF-7 cells; [14]): 40.07% and 37.94% | Cells (×10^4) (MCF-7 cells; [14]): 42.3 ×10^4 (2×) and 43.8 ×10^4 | % Inhibition (MCF-7 cells; [15]): 47.98% and 51.88% and 51.45% | Cells (x10^4) (MCF-7 cells; [15]): 30.0 x10^4 and 27.8 x10^4 and 28.0 x10^4 | % Inhibition (MCF-7 cells; [16]): 49.98% and 45.04% and 45.55% | Cells (×10^4) (MCF-7 cells; [16]): 24.8 ×10^4 and 27.3 ×10^4 and 27.0 ×10^4 | Drug Inhibition on MCF-7 Cells (MCF-7 cells; 10 μg/ml, Table 8 summary): 61.1 | Drug Inhibition on MCF-7 Cells (MCF-7 cells; 10 μg/ml, Table 12 summary): 65.21 | MCF-7 Mean (drug inhibition) (MCF-7 cells; 10 μg/ml): 57.45 | Drug inhibition on MCF-7 Cells Mean (MCF-7 cells; 10 μg/ml): 65.03 | % Inhibition Mean (MCF-7 cells; [17]): 61.10% | Cells (×10^4) Mean (MCF-7 cells; [17]): 22.50 ×10^4 | % Inhibition Mean (MCF-7 cells; [18]): 57.45% | Cells (×10^4) Mean (MCF-7 cells; [18]): 30.00 ×10^4 | % Inhibition Mean (MCF-7 cells; [19]): 65.03% | Cells (x10^4) Mean (MCF-7 cells; [19]): 20.17 x10^4 | % Inhibition Mean (MCF-7 cells; [20]): 65.21% | Cells (×10^4) Mean (MCF-7 cells; [20]): 17.25 ×10^4 | % Inhibition (MCF-7 cells; [21]): 61.53% and 60.23% | Cells (×10^4) (MCF-7 cells; [21]): 22.3 ×10^4 (2×) and 23.0 ×10^4 | % Inhibition (MCF-7 cells; [22]): 57.45% | Cells (×10^4) (MCF-7 cells; [22]): 30.0 ×10^4 | % Inhibition (MCF-7 cells; [23]): 69.65% and 62.72% | Cells (x10^4) (MCF-7 cells; [23]): 17.5 x10^4 and 21.5 x10^4 (2×) | % Inhibition (MCF-7 cells; [24]): 65.21% and 63.19% and 67.23% | Cells (×10^4) (MCF-7 cells; [24]): 17.3 ×10^4 and 18.3 ×10^4 and 16.3 ×10^4 | Cells (×10^4) Mean (MCF-7 cells; drug 1 μg/ml, mean of replicates): 43.08 ×10^4 | % Inhibition Mean (MCF-7 cells; drug 1 μg/ml, mean of replicates, vs 2% DMSO): 15.38% | Cells (×10^4) (MCF-7 cells; drug 1 μg/ml, single replicate count): 43.3 ×10^4 (2×) and 42.8 ×10^4 | % Inhibition (MCF-7 cells; drug 1 μg/ml, single replicate, vs 2% DMSO): 15.06% and 16.04% | Cells (×10^4) Mean (MCF-7 cells; drug 5 μg/ml, mean of replicates): 32.08 ×10^4 | % Inhibition Mean (MCF-7 cells; drug 5 μg/ml, mean of replicates, vs 2% DMSO): 36.99% | Cells (×10^4) (MCF-7 cells; drug 5 μg/ml, single replicate count): 31.5 ×10^4 and 32.3 ×10^4 and 32.5 ×10^4 | % Inhibition (MCF-7 cells; drug 5 μg/ml, single replicate, vs 2% DMSO): 38.13% and 36.66% and 36.17% | Cells (×10^4) Mean (MCF-7 cells; drug 10 μg/ml, mean of replicates): 24.08 ×10^4 | % Inhibition Mean (MCF-7 cells; drug 10 μg/ml, mean of replicates, vs 2% DMSO): 52.7% | Cells (×10^4) (MCF-7 cells; drug 10 μg/ml, single replicate count): 22.0 ×10^4 and 25.5 ×10^4 and 24.8 ×10^4 | % Inhibition (MCF-7 cells; drug 10 μg/ml, single replicate, vs 2% DMSO): 56.79% and 49.92% and 51.39% | Drug Inhibition on PC-3 cells (PC-3 cells; 1 μg/ml, Table 7): 17.27 | Drug Inhibition on PC-3 cells (PC-3 cells; 1 μg/ml, Table 10): 13.69 | % Inhibition Mean (PC-3 cells; 1 μg/ml): 13.69% | Cells (×10^4) Mean (PC-3 cells; 1 μg/ml): 84.58 ×10^4 | % Inhibition (PC-3 cells; 1 μg/ml): 14.29% and 12.76% and 14.03% | Cells (×10^4) (PC-3 cells; 1 μg/ml): 84.0 ×10^4 and 85.5 ×10^4 and 84.3 ×10^4 | Drug Inhibition on PC-3 cells (PC-3 cells; 5 μg/ml, Table 7): 43.23 | Cells (×10^4) Mean (PC-3 cells; 5 μg/ml): 17.33 ×10^4 | Cells (×10^4) (PC-3 cells; 5 μg/ml): 70.5 ×10^4 and 72.3 ×10^4 and 71.3 ×10^4 | Drug Inhibition on PC-3 cells (PC-3 cells; 10 μg/ml, Table 7): 59.67 | Drug Inhibition on PC-3 cells (PC-3 cells; 10 μg/ml, Table 10): 37.16 | % Inhibition Mean (PC-3 cells; 10 μg/ml): 37.16% | Cells (×10^4) Mean (PC-3 cells; 10 μg/ml): 61.58 ×10^4 | % Inhibition (PC-3 cells; 10 μg/ml): 37.24% and 37.50% and 36.73% | Cells (×10^4) (PC-3 cells; 10 μg/ml): 61.5 ×10^4 and 61.3 ×10^4 and 62.0 ×10^4
